Data from patent US20260001875A1, “AMINOPYRIMIDINYL DERIVATIVES FOR THE TREATMENT OF PARKINSON'S DISEASE” (UNIVERSITY OF DUNDEE, priority 2022, published 2026).
“Also recorded” adds a separate entry of the source. Where two headings read alike, the source gives them in different places.

Tests used:
LRRK2 pSer935 = experiment: LRRK2 Ser935 dephosphorylation (immunoblot) in LRRK2^G2019S MEFs; type: cell-based, mouse; details: for EC50: Mus musculus, dose response; for T1/2 GS-pSer935-LRRK2: LRRK2^G2019S MEFs
Experimental: Western blot degradation assays for the LRRK2 protacs were performed with WT and PD-associated LRRK2 [G2019S] mouse embryonic fibroblasts (MEFs). The second-generation PROTACs were tested in parallel with the first generation PROTACs SD75, SD82, and SD100. The compounds were tested at 33 nM or […] concentrations for 4 hours or 24 hours, running two biological replicates per condition and achieving quantifications representative of both replicates. Analysis by quantitative immunoblotting was performed with readouts of the total LRRK2 (antibody recognizes epitope in C-terminus of protein), Rab10 pThr73 (physiological substrate) and LRRK2 pSer935 (biomarker phosphorylation site).
Primary MEFs were generated as described in a previous study (Wiggin et al., Mol. Cell Biol. 2002 April; 22(8):2871-81.). Briefly, the uterine horn was collected from adult female mice at day E12.5 and transferred to a 10 cm tissue culture dish containing cold PBS. Two forceps were used to tear the yolk sacs to isolate each embryo. Forceps were cleaned thoroughly with 70% ethanol between each embryo isolation. The embryos were culled, and a tissue piece was collected in a PCR tube for genotyping. The red tissue of the embryo, which grows to become the heart and liver, was removed. The remainder of the embryo was minced with a scalpel blade and incubated with 7.5 ml trypsin-EDTA solution for 10 minutes in a 37° C. tissue culture CO2 incubator. The dish was removed from the incubator and checked under a light microscope for single cells. 7.5 ml complete media was added to the trypsinised cells, and the cell suspension was transferred to a 15 ml Falcon tube, centrifuged at 1200 rpm for 5 minutes at room temperature. The trypsin was aspirated, the cell pellet was resuspended in 5 ml fresh complete media, and the cell suspension was plated in a 60 mm tissue culture dish and incubated in a 37° C., 5% CO2 tissue culture incubator. The MEFs at this stage were considered as passage 0 and were passaged and expanded for experimental use once the genotype was confirmed by allelic sequencing and immunoblotting. MEFs were cultured in Dulbecco's modified Eagle medium (DMEM) containing 10% (v/v) fetal bovine serum (FBS), 2 mM L-glutamine, 100 U/ml penicillin, and 100 μg/ml streptomycin supplemented with 1× non-essential amino acids and 1 mM sodium pyruvate.
Culturing and passaging of adherent cell lines were carried out using aseptic technique in CL1 or CL2 (for PBMC isolation) biological safety cabinets. All cells were incubated in a 37° C. incubator with 5% CO2. Cell lines were regularly tested for mycoplasma contamination. For western blot assay, the cells were seeded in 6-well plates. After treating with testing compounds at indicated concentrations and time period, the media was removed and the cells were washed with PBS and lysed in 100 μl ice-cold complete lysis buffer containing 50 mM Tris-HCl pH 7.4, 1 mM EGTA, 10 mM 2-glycerophosphate, 50 mM sodium fluoride, 5 mM sodium pyrophosphate, 270 mM sucrose, supplemented with 1 μg/ml microcystin-LR, 1 mM sodium orthovanadate, complete EDTA-free protease inhibitor cocktail (Roche) and 1% (v/v) Triton X-100. The cells were immediately placed on ice and were scraped and collected into 1.5 ml Eppendorf tubes. Cell lysates were incubated on ice for 10 minutes prior to centrifugation at 15,000 g at 4° C. for 15 minutes. The cell pellet was discarded, and supernatant was collected for analysis by quantitative immunoblotting. For long term storage, the supernatant was flash frozen and stored at −80° C. Protein concentrations of cell lysates were determined using the Bradford assay.
Cell lysates containing a quarter of a volume of 4× NuPAGE LDS sample buffer (NP0007) supplemented with 5% β-mercaptoethanol, were heated at 95° C. for 5 minutes. […]

LRRK2^G2019S = molecular target: T1, LRRK2^G2019S (Mus musculus, UniProt Q5S006, G2019S); experiment: Western blot LRRK2 degradation in LRRK2^G2019S MEFs; type: cell-based
T1 construct: endogenous in cells; host or cells: LRRK2[G2019S] mouse embryonic fibroblasts (MEFs)

LRRK2^WT [1] = molecular target: T2, LRRK2^WT (Mus musculus, UniProt Q5S006); experiment: Western blot LRRK2 degradation in WT MEFs; type: cell-based; details: for Dmax on WT MEFs / DC50 / Dmax: dose response; for Dmax: read-out: Dmax on WT MEFs
T2 construct: endogenous in cells; host or cells: primary wild-type mouse embryonic fibroblasts (MEFs)

LRRK2^WT [2] = experiment: Western blot LRRK2 degradation in WT MEFs; type: cell-based, mouse; details: for LRRK2 degradation (in words): WT MEFs and LRRK2^G2019S MEFs
VHL = VHL (Homo sapiens, UniProt P40337); experiment: NanoBRET VHL target engagement in HEK293 cells; type: binding; set-up: host or cells: HEK293; details: for IC50: read-out: IC50 VHL tracer displacement
Experimental: For VHL and LRRK2 target engagement experiments in live and permeabilized cells, the HEK293 cells were transfected with VHL-NanoLuc fusion vector (Promega, N275A) or LRRK2-NanoLuc fusion vector (Promega, NV3401) following Promega's protocol and seeded into white 384-well plate (Corning3570) at a density of 6000 cells/well. To measure NanoBRET in permeabilized cells, the cells were treated with 50 μg/mL digitonin (Sigma, D141), 125 nM VHL tracer/125 nM LRRK2 tracer, testing compounds at decreasing concentrations (12 concentrations with 2-fold serial dilution starting from 33 μM), and NanoBRET NanoGlo Substrate (Promega) at concentration recommended by the manufacturer's protocol. In the maximum signal control samples (DMSO control), DMSO was added instead of testing compounds. In the minimum signal control samples (no tracer control), DMSO and tracer dilution buffer were used to replace testing compounds and tracer separately. The filtered luminescence was measured within 10 min following addition of the substrate on a GloMax Discover microplate reader (Promega) or a PHERAstar (BMG LABTECH) plate reader equipped with a 450-nm bandpass filter (donor) and a 600-nm long pass filter (acceptor). To measure NanoBRET in live cells, the cells were treated with 250 nM VHL tracer/500 nM LRRK2 tracer, testing compounds at testing compounds at decreasing concentrations (12 concentrations with 2-fold serial dilution starting from 33 μM) and incubated at 37° C. in an incubator for 2 h. The plates were then cooled down and added with NanoBRET NanoGlo Substrate and Extracellular NanoLuc Inhibitor (Promega, N2160) before performing the same NanoBRET reading as the permeabilized mode on plate readers. NanoBRET ratio of each well was expressed in milliBRET according to the equation: mBRET=[(signal at […]/signal at 450 nM)−(signal at 610 nMno tracer control/signal at 450 nMno tracer control)]×1000. The fractional occupancy was calculated according to the equation: fractional occupancy=(mBRETtesting compound−mBRETno tracer control)/(mBRETDMSO control−mBRETno tracer control).

T2 sequence (Q5S006 whole entry): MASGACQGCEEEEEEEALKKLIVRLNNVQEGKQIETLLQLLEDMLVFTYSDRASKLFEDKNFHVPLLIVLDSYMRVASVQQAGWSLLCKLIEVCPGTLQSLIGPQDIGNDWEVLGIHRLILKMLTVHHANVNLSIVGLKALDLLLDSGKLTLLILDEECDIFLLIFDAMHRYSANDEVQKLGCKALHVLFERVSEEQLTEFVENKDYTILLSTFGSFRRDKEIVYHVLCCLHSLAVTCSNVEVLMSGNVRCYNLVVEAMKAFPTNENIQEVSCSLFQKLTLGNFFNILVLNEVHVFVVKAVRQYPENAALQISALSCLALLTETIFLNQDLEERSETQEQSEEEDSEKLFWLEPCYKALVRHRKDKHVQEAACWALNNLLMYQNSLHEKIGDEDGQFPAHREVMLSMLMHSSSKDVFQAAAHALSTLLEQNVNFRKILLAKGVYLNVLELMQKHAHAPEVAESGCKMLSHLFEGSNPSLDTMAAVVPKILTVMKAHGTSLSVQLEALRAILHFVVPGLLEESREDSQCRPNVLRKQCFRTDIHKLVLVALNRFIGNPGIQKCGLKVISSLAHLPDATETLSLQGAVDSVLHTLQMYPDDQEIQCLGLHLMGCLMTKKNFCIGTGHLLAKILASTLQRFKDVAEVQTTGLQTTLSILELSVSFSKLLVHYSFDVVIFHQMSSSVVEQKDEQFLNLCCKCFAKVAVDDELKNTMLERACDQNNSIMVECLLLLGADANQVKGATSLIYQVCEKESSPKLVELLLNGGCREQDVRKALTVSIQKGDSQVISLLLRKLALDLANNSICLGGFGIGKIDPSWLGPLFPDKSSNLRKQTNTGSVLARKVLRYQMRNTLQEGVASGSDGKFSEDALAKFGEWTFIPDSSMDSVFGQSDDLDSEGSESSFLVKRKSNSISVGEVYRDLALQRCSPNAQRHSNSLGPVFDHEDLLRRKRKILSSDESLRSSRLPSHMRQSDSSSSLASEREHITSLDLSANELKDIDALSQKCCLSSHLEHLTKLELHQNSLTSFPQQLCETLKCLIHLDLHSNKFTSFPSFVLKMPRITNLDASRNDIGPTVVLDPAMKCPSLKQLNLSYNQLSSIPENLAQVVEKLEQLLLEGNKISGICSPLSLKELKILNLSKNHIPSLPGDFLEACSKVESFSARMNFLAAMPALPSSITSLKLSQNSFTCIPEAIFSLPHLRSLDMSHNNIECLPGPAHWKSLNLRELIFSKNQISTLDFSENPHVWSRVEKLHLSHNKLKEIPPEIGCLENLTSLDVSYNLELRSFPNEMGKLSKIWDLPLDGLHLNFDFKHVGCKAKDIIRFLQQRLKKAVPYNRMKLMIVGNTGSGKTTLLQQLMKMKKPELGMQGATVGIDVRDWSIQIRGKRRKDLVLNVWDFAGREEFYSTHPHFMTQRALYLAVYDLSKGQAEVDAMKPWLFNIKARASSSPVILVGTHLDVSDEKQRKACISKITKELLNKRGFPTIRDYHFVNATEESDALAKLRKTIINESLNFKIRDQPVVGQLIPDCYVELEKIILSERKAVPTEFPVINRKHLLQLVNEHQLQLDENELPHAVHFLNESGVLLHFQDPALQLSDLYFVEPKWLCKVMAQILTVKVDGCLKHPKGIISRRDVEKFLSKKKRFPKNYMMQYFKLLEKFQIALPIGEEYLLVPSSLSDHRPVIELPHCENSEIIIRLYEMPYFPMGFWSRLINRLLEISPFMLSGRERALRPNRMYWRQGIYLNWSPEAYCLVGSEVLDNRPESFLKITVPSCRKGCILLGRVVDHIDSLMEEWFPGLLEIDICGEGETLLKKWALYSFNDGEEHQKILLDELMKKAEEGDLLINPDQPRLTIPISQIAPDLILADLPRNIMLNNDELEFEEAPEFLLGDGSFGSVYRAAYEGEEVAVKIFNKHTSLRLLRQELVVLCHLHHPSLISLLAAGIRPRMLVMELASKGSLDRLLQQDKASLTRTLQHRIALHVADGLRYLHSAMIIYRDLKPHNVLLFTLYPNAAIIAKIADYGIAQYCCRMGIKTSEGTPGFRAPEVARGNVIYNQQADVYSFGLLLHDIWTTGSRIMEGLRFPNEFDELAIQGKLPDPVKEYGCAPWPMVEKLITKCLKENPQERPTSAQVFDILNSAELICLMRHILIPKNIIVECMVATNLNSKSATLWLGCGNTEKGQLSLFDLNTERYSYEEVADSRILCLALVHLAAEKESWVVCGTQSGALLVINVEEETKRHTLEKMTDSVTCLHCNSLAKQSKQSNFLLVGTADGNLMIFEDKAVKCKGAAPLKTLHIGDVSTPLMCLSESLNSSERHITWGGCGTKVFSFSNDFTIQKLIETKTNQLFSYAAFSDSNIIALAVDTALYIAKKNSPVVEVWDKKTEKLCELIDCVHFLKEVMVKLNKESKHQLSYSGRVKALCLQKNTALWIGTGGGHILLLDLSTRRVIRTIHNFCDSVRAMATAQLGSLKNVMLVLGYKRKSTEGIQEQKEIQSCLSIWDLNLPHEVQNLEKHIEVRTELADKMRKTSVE
Sequence of VHL (P40337 whole entry, the tested form may be a part): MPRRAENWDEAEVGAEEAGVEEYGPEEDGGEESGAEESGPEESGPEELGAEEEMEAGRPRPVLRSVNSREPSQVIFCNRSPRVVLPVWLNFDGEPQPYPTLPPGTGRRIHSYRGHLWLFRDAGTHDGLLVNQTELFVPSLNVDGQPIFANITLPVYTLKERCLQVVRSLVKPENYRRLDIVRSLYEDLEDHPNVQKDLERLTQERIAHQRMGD
T1 sequence (Q5S006 whole entry G2019S): as the sequence (Q5S006 whole entry) above, with G2019S counted along it

Compound	EC50 (LRRK2 pSer935; 24 h treatment)	T1/2 GS-pSer935-LRRK2 (LRRK2 pSer935; time course at 1000 nM)	T1/2 of LRRK2^G2019S degradation (LRRK2^G2019S; time course at 1000 nM)	Dmax on WT MEFs (LRRK2^WT [1]; 24 h treatment)	T1/2 of LRRK2^WT degradation (LRRK2^WT [1]; time course at 1000 nM, WT MEFs)	LRRK2 degradation (in words) (LRRK2^WT [2])	IC50 (VHL; live HEK293 cells)	IC50 (VHL; permeabilized HEK293 cells)	IC50 ratio IC50, per/IC50, live (VHL engagement) (VHL; permeabilized vs live mode)	EC50 (LRRK2 pSer935; 4 h treatment)	T1/2 GS-pSer935-LRRK2 (LRRK2 pSer935; time course at 300 nM)	T1/2 of LRRK2^G2019S degradation (LRRK2^G2019S; time course at 300 nM)	DC50 (LRRK2^WT [1]; 4 h treatment)	Dmax on WT MEFs (LRRK2^WT [1]; 4 h treatment)	Dmax (LRRK2^WT [1]; 4 h treatment)	Dmax at 0.3 µM (LRRK2^WT [1]; time course at 300 nM, WT MEFs)	T1/2 of LRRK2^WT degradation (LRRK2^WT [1]; time course at 300 nM, WT MEFs)	mechanism of induced LRRK2 degradation (in words) (LRRK2^WT [2]; pretreatment with VH101, MLN4924, MG132, WT and LRRK2^G2019S MEFs)	VHL tracer displacement (in words) (VHL; permeabilized HEK293 cells)	Dmax at 0.3 µM (LRRK2^G2019S; time course at 300 nM)
CNc1nc(Nc2ccc(C(=O)N3CCN(CCOCCOCCSC(C)(C)[C@H](NC(=O)C4(F)CC4)C(=O)N4C[C@H](O)C[C@H]4C(=O)NCc4ccc(-c5scnc5C)cc4)CC3)cc2OC)ncc1Cl [SD75, (2S,4R)-1-((R)-3-((2-(2-(2-(4-(4-((5-chloro-4-(methylamino)pyrimidin-2-yl)amino)-3-methoxybenzoyl)piperazin-1-yl)ethoxy)ethoxy)ethyl)thio)-2-(1-fluorocyclopropane-1-carboxamido)-3-methylbutanoyl)-4-hydroxy-N-(4-(4-methylthiazol-5-yl)benzyl)pyrrolidine-2-carboxamide]	279 nM	1.4 h	1.1 h	50%	5.1 h	moderate LRRK2 degradation; also recorded: partial LRRK2 degradation	2500 nM	1900 nM	0.76											
CNc1nc(Nc2ccc(C(=O)N3CCN(C[C@H]4CC[C@H](CSC(C)(C)[C@H](NC(=O)C5(F)CC5)C(=O)N5C[C@H](O)CC5C(=O)NCc5ccc(-c6scnc6C)cc5)CC4)CC3)cc2OC)ncc1Cl (stereo partly drawn) [XL01126, (2S,4R)-1-((R)-3-((((1R,4R)-4-((4-(4-((5-chloro-4-(methylamino)pyrimidin-2-yl)amino)-3-methoxybenzoyl)piperazin-1-yl)methyl)cyclohexyl)methyl)thio)-2-(1-fluorocyclopropane-1-carboxamido)-3-methylbutanoyl)-4-hydroxy-N-(4-(4-methylthiazol-5-yl)benzyl)pyrrolidine-2-carboxamide]						almost complete LRRK2 degradation	10100 nM			9 nM	0.3 h	0.6 h	32 nM	80-90%	82%	82%	1.2 h	dependent on the proteasome pathway	poor displacement	
CNc1nc(Nc2ccc(C(=O)N3CCN(C[C@H]4CC[C@@H](CSC(C)(C)[C@H](NC(=O)C5(F)CC5)C(=O)N5C[C@H](O)CC5C(=O)NCc5ccc(-c6scnc6C)cc5)CC4)CC3)cc2OC)ncc1Cl (some centres unmarked) [XL01134]						hook effect	880 nM	780 nM		5 nM	0.3 h	1.4 h	32 nM	58%	59%		2.7 h			82%
